Experiments:
[1] = system: HT-1080 cells; experiment: In vitro invasion assay with geldanamycin or GA-beads (Example 8); format: cell-based, human; settings: 10 μM for 1 hour; eliminated when activated MMP2 (100 ng) was added; data not shown
[2] = system: MMP2 (72 kDa gelatinase); experiment: Zymography of secreted MMP2 after geldanamycin treatment; format: cell-based, human; settings: HT-1080 cells, 20 μM in serum-free media
Experimental: HT-1080 cells were treated with 20 μM geldanamycin (GA) in serum-free media and assayed by zymography. MMP2 (72 kDa gelatinase) activity was decreased by ˜35% after GA treatment. Total protein content was visualized by silver staining to ensure equal loading.
We then applied a known Hsp90 inhibitor, geldanamycin, to HT-1080 cells to test whether inhibition of Hsp90 reduced MMP2 activity. HT-1080 cells were treated with 20 μM geldanamycin (GA) in serum-free media and secreted MMP2 was assayed by zymography. MMP2 (72 kDa gelatinase) activity was decreased by ˜35%; p<0.01 after GA treatment. Total protein content in conditioned media was visualized by silver staining to ensure equal loading. (See, FIG. 18).

[3] = system: HT-1080 cells; experiment: Invasion assay with FITC-labelled antibodies and CALI (Example 9.1); format: cell-based, human; settings: FITC-labelled antibody, 300 W blue-filtered light for one hour; result in words
Experimental: Each bar is normalized to dark control and represents the mean.+−.s.e.m of at least 2 experiments in triplicate.
(§1) The ChemoTx® system (Neuro Probe Inc. #106-8, Gaithersburg) was used as a disposable chemotaxis/cell migration chamber in a 96 well format with an 8 μm filter Track etched Polycarbonate pore size, 5.7 mm diameter/site.
(§2) 13.3 μl of 0.3 mg/ml Matrigel (see Example 8) diluted in cold Dulbeccos PBS (Gibco #14040-091) was applied on the membrane filter of the 96-well plate on row B-H and on row A0.3 μg/site of mouse collagen, type IV (Becton-Dickenson #354233) was diluted in 0.05 M HCL (Sigma #945-50) and was incubated over night at 20° C. in a desiccator for gelation, HT-1080 cells were grown to 70-80% confluence in DMEM supplemented with MEM non-essential amino acids (IX, Gibco #11140050) and Penicillin/Streptomycin (1×, Gibco #15140122) with 10% FBS (Hyclone #SH30070.03). […] After scraping the non-migrating cells from the top of the membrane (except the Standard curve on row A) fluorescence of cells, which had migrated through the membrane (not migrated in case of the Standard curve), was measured on the Tecan Spectrafluor Plus fluorescence plate reader (excitation: 544, emission: 590 nm). […]

[4] = system: HT-1080 cells; experiment: Invasion assay after 1 hour pre-treatment with novobiocin or nalidixic acid; format: cell-based, human; settings: cells pre-treated for 1 hour; normalized to no drug control; result in words
Experimental: HT-1080 cells were pre-treated for 1 hour with novobiocin or nalidixic acid and an invasion assay was performed. […] Viability of cells in this assay was not affected (data not shown). Each data point is normalized to the no drug control and represents the mean.+−.s.e.m. of 2 experiments in triplicate.
as §1, §2

[5] = system: matrix metalloprotease (MMP); experiment: Gelatin zymography of conditioned media (MMP secretion/activity); format: cell-based, human; settings: 40,000 HT-1080 cells treated 6 hours
Experimental: 40,000 HT-1080 cells were treated for 6 hours with novobiocin or nalidixic acid (as a control) at the given concentrations. […] Two bands (A and B) correspond to unidentified MMPs. (Image inverted for clarity.)
40,000 HT-1080 cells were treated for 6 hours with novobiocin or nalidixic acid at the given concentrations. The conditioned media from treated cells was separated using a SDS-PAGE gel containing 10 mg/mL gelantin. SDS was removed from the gel using 2.5% Triton-X-100 for 30 minutes at room temperature. Proteins were allowed to digest the gelatine in digestion buffer (0.1M […], pH 8.0, 5 mM CaCl2, 0.04% NaN3) for 48 hours at 37° C. Gels were coomassie-stained and dried for densitometry. Parallel gels were silver stained to show equal loading of protein (data not shown).

[6] = system: HT-1080 cells; experiment: Viability of cells in the novobiocin invasion assay; format: cell-based, human; settings: data not shown
Experimental: 8×10^6 HT-1080 cells/mL were pretreated for 1 hour with novobiocin or nalidixic acid at the concentrations shown and an invasion assay was performed as described in Example 9.1. […] Viability of novobiocin-treated cells in this assay was not affected (data not shown). Each data point is normalized to the no drug control and represents the mean.+−.s.e.m. of 2 experiments in triplicate.

[7] = system: HT-1080 cells; experiment: Cell-matrix adhesion assay (Collagen S type I); format: cell-based, human; settings: FITC labeled scFv, assay with CALI; data not shown
Experimental: 96-well plates (TPP #9296) (cell culture treated) were coated in Row B-H with collagen S type I 1 μg/well (Roche #10982929) in Dulbeccos PBS (Gibco #14040-091) and in Row A well 10-12 were coated with 2% BSA (Sigma #A-7030)/Dulbeccos PBS at 4° C. over night. The plate was washed with Dulbeccos PBS, blocked Row B-H and Row A well 10-12 with 2% BSA/Dulbeccos PBS for 1 h at 37° C. and washed again with Dulbeccos PBS. […] Fluorescence of cells, which had adhered to the Collagen S type 1 (not adhered in case of the Standard curve), was measured on the Fluostar Galaxy (bMG) microplate reader using excitation/emission wavelengths of 370/460 nm. scFv1 inhibited the adhesion of HT-1080 cells to Collagen S type 1 by 50%. […]

[8] = system: HT-1080 cells; experiment: FACS analysis for tumor cell specific binding; set-up: species or system human; settings: 10 μg/ml scFv; HT-1080 versus HS-27 control cells
Experimental: The binding activity of scFv1 to HT-1080 cells (bold line) and to HS-27 cells (thin line) as control is illustrated.
To test the ability of purified anti HT-1080 scFv to bind specifically to target cells, we performed a fluorescence-activated cell sorter (FACS) analysis using HT-1080 cells (ATCC CCL-121) and Hs-27 cells (10^6 cells/ml) as control cell line (see Figures). Cells were incubated with 10 μg/ml of pure scFv in CellWash (BD (Becton, Dickinson and Company) #349524) for 20 min at 4° C., washed, and bound scFv's were detected with a secondary FITC labeled anti E-tag mab (Amersham #27-9412-01). Samples were washed and analyzed on a Becton Dickinson FACSscan. […] The thin line represents the control cell line (HS-27) and the bold line the HT-1080 cells. scFv1 specifically stains the tumor cell lines with up to 10 fold higher signal compared to the control cell line.

Q: With `COC1=C2C[C@@H](C)C[C@H](OC)[C@H](O)[C@@H](C)/C=C(\C)[C@H](OC(N)=O)[C@@H](OC)/C=C\C=C(/C)C(=O)NC(=CC1=O)C2=O` [geldanamycin] as the molecule, how does the “decrease of invasion of HT-1080 cells” value [1] read?
A: ~35%

Q: And the “decrease of MMP2 (72 kDa gelatinase) activity” value [2]?
A: ~35%

Q: With “JB1: FITC-labeled anti-beta 1 integrin monoclonal antibody (JB1, Chemicon #MAB1963), positive control” as the molecule, how does the “reduction of invasion after exposure to light” value [3] read?
A: significant (p<0.01, unpaired t-test) reduction of invasion

Q: Which results are given for `CCn1cc(C(=O)O)c(=O)c2ccc(C)nc21` [nalidixic acid]?
A: effect on invasion of HT-1080 cells [4]: no effect on invasion; reduction of MMP enzyme activity ([5]; zymography): no reduction of enzyme activity

Q: Which results are given for `CO[C@@H]1[C@@H](OC(N)=O)[C@@H](O)[C@H](Oc2ccc3c(O)c(NC(=O)c4ccc(O)c(CC=C(C)C)c4)c(=O)oc3c2C)OC1(C)C` [novobiocin]?
A: effect on invasion of HT-1080 cells [4]: dose-dependent inhibition of invasion; decrease of MMP activity ([5]; highest concentration tested, zymography densitometry): > 75%; viability of treated cells [6]: not affected

B1: scFv1: single chain Fv antibody fragment from phage library of mice immunized with HT-1080 cells; SEQ ID NO: 1 (protein, listed as Mus sp.)
scFv: QVQLKESGAELVKPGASVKLSCTASGFNIKDYYMHWVKQRTEQGLEWIGRIDPEDGETKYAPKFQGKATITADTSSNTAYLQLSSLTSEDTAVYYCARSYDYAMDYWGQGTTVTVSTGGGGSGGGGSGGGGSALQIVLTQSPALMSASPGEKVTMTCSASSSVSYMHWYQQKSGTSPKRWIYDTSKLASGVPARFSGSGSGTSYSLTISSMEAEDAATYYCQQWSSNPLTFGAGTKLELKAAAGAPVPYPDPLEPRGAASAWSHPQFEK
Q: How did the “inhibition of adhesion of HT-1080 cells to Collagen S type 1” value [7] turn out when B1 was run?
A: 50%

Q: And the “FACS signal on tumor cell line compared to control cell line” value [8]?
A: up to 10 fold

Source: patent US9068987B2, “Inhibitors of extracellular HSP90” (TRUSTEES OF TUFTS COLLEGE, priority 2003, dated 2015)
